Laboratory results reported in ChEMBL document CHEMBL1817597, “Antifungal thiopeptide cyclothiazomycin B1 exhibits growth inhibition accompanying morphological changes via binding to fungal cell wall chitin” (Bioorg Med Chem, 2011).
Active and inactive are the calls of the source. The calls are words filed in the database; no cut-off is given here.

Legend:
[1] = system: Mucor mucedo; experiment: Induction of morphological changes in Mucor mucedo IFO 7684 assessed as thickening of hyphae at 100 uM after 24 hrs by microscopic analysis; assay type: functional, organism-based
[2] = system: Mucor mucedo; experiment: Antimicrobial activity against Mucor mucedo IFO 7684 at 100 uM after 24 hrs by broth microdilution method; assay type: functional, organism-based
[3] = system: Mucor mucedo; experiment: Inhibition of RNA synthesis in Mucor mucedo IFO 7684 assessed as [8-14C]-adenine uptake into acid-insoluble fractions at 0.77 mM after 25 mins by liquid scintillation counting; assay type: functional; conditions: IFO 7684, 25 min
[4] = system: Mucor mucedo; experiment: Inhibition of DNA synthesis in Mucor mucedo IFO 7684 assessed as [8-14C]-adenine uptake into acid-insoluble fractions at 0.77 mM after 25 mins by liquid scintillation counting; assay type: functional; conditions: IFO 7684, 25 min
[5] = system: Mucor mucedo; experiment: Antifungal activity against Mucor mucedo IFO 7684 under hyperosmotic shock at 0.081 uM after 2 days by paper disc method; assay type: functional; conditions: IFO 7684, 48 h, read-out: DIZ
[6] = system: Mucor mucedo; experiment: Inhibition of chitin synthase in Mucor mucedo IFO 7684 assessed as incorporation of GlcNAc from [14C]-UDP-GlcNAc into acid-insoluble fractions at 4 ug/ml after 55 mins by liquid scintillation counting
[7] = system: Fusarium oxysporum; experiment: Antifungal activity against Fusarium oxysporum NBRC 5942 under hyperosmotic shock at 0.081 uM after 2 days by paper disc method; assay type: functional; conditions: NBRC 5942, 48 h, read-out: DIZ
[8] = system: Mucor mucedo; experiment: Antifungal activity against Mucor mucedo IFO 7684 under hypoosmotic shock assessed as increase of fragility of organism at 0.081 uM after 24 hrs measured after distilled water treatment for 10 mins by microscopic analysis; assay type: functional, organism-based
[9] = system: Fusarium oxysporum; experiment: Antifungal activity against Fusarium oxysporum NBRC 5942 under hypoosmotic shock assessed as increase of fragility of organism at 0.081 uM after 24 hrs measured after distilled water treatment for 10 mins by microscopic analysis; assay type: functional, organism-based
[10] = system: Mucor mucedo; experiment: Effect on cell wall re-generation in Mucor mucedo IFO 7684 spheroplasts under hyperosmotic condition at 0.081 uM up to 24 hrs by microscopic analysis; assay type: functional

CCCC(=O)Nc1ncnc2c1ncn2[C@@H]1O[C@@H]2COP(=O)(O)O[C@H]2[C@H]1OC(=O)CCC
Activity [1]: inactive | Activity [2]: inactive

CNCCNS(=O)(=O)c1cccc2cnccc12
Activity [1]: inactive | Activity [2]: inactive

O=c1[nH]cc(F)c(=O)[nH]1 [FLUOROURACIL]
inhibition at 770 µM [3]: 75% | inhibition at 770 µM [4]: 61%

C[C@@H]([C@H](N)C(=O)N[C@H](C(=O)O)[C@H]1O[C@@H](n2ccc(=O)[nH]c2=O)[C@H](O)[C@@H]1O)[C@H](O)c1ccc(O)cn1 [NIKKOMYCIN]
zone of inhibition at 0.081 µM [5]: 23 mm | inhibition [6]: 69% | zone of inhibition at 0.081 µM [7]: 0 mm | Activity [8]: Active | Activity [9]: Active | Activity [10]: inactive
